Measured values as given in patent US9340590B2 (priority 2011, dated 2016).
Where two headings read alike, the source gives them in different places. Positions of bridges follow the written chain, without caps; N, C: chain ends. Non-standard residues stand in square brackets, D forms with d. Residues, ends and D or L forms follow the SMILES beside them. Lys(Me2) = CN(C)CCCC[C@H](N)C(=O)O

Tests used:
Experiment in all cases: cell-based
hNav1.7 = hNav1.7 (Homo sapiens, UniProt Q15858); format: cell-based; conditions: IonWorks Quattro, read-out: IWQ Use Nav1.7
hNav1.5 = hNav1.5 (Homo sapiens, UniProt Q14524)
hNav1.3 = hNav1.3 (Homo sapiens, UniProt Q9NY46); conditions: IonWorks Quattro, read-out: IWQ Use Nav1.3
[1] = clamped to −110 mV, depolarized to −10 mV, 5 min after compound, n=2
[2] = IonWorks Quattro, use-dependent, […], read-out: IWQ Use Nav1.5

Chain of hNav1.3 (Q9NY46 whole entry, looked up): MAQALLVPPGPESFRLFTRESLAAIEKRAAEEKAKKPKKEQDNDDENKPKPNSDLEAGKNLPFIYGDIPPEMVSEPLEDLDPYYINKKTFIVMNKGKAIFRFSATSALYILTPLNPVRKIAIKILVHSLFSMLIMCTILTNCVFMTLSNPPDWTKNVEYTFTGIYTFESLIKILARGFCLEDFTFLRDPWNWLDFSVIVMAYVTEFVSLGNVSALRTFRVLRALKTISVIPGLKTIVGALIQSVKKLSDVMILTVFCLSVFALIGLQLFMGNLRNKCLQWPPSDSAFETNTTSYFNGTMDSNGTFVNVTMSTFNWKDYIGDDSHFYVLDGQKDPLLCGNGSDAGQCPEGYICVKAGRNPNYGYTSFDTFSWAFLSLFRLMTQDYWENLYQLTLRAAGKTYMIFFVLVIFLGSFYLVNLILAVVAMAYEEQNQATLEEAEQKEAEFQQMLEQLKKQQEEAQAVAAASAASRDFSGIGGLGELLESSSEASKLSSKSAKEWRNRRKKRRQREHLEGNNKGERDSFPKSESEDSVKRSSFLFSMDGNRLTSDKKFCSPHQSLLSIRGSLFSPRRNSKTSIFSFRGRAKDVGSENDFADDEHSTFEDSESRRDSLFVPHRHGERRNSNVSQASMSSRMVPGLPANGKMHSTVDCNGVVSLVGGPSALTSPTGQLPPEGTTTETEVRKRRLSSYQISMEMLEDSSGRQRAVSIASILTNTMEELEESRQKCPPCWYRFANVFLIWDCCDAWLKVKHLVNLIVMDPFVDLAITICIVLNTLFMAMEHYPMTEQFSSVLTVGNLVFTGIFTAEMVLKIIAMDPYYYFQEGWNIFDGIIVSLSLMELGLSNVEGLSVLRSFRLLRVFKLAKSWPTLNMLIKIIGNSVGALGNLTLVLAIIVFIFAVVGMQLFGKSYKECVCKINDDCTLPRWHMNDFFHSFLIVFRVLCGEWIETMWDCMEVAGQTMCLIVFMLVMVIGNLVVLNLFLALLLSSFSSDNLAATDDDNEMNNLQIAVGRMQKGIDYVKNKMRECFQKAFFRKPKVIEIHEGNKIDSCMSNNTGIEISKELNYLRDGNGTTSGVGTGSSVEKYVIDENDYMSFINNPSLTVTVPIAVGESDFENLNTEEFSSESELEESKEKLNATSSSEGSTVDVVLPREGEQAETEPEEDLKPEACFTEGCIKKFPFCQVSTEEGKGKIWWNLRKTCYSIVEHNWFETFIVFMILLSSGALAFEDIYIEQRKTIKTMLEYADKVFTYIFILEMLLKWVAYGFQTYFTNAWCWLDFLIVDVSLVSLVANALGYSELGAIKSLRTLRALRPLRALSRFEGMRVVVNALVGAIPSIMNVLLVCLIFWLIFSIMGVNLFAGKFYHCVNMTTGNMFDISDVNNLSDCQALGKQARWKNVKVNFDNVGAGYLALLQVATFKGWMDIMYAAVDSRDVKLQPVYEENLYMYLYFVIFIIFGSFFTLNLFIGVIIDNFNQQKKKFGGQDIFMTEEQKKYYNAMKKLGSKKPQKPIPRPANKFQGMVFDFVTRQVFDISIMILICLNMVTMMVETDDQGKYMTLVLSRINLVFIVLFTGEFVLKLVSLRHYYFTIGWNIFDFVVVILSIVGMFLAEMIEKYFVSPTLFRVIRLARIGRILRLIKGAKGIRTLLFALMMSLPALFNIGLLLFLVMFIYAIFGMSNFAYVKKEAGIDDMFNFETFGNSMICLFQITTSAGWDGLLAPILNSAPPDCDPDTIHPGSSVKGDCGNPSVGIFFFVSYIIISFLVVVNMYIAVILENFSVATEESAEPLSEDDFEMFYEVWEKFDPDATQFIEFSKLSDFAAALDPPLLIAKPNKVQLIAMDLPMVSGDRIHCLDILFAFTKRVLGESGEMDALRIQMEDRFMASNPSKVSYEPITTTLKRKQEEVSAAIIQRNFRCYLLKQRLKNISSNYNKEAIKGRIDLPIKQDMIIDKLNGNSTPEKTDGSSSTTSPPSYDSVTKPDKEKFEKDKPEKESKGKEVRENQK
Chain of hNav1.5 (Q14524 whole entry, looked up): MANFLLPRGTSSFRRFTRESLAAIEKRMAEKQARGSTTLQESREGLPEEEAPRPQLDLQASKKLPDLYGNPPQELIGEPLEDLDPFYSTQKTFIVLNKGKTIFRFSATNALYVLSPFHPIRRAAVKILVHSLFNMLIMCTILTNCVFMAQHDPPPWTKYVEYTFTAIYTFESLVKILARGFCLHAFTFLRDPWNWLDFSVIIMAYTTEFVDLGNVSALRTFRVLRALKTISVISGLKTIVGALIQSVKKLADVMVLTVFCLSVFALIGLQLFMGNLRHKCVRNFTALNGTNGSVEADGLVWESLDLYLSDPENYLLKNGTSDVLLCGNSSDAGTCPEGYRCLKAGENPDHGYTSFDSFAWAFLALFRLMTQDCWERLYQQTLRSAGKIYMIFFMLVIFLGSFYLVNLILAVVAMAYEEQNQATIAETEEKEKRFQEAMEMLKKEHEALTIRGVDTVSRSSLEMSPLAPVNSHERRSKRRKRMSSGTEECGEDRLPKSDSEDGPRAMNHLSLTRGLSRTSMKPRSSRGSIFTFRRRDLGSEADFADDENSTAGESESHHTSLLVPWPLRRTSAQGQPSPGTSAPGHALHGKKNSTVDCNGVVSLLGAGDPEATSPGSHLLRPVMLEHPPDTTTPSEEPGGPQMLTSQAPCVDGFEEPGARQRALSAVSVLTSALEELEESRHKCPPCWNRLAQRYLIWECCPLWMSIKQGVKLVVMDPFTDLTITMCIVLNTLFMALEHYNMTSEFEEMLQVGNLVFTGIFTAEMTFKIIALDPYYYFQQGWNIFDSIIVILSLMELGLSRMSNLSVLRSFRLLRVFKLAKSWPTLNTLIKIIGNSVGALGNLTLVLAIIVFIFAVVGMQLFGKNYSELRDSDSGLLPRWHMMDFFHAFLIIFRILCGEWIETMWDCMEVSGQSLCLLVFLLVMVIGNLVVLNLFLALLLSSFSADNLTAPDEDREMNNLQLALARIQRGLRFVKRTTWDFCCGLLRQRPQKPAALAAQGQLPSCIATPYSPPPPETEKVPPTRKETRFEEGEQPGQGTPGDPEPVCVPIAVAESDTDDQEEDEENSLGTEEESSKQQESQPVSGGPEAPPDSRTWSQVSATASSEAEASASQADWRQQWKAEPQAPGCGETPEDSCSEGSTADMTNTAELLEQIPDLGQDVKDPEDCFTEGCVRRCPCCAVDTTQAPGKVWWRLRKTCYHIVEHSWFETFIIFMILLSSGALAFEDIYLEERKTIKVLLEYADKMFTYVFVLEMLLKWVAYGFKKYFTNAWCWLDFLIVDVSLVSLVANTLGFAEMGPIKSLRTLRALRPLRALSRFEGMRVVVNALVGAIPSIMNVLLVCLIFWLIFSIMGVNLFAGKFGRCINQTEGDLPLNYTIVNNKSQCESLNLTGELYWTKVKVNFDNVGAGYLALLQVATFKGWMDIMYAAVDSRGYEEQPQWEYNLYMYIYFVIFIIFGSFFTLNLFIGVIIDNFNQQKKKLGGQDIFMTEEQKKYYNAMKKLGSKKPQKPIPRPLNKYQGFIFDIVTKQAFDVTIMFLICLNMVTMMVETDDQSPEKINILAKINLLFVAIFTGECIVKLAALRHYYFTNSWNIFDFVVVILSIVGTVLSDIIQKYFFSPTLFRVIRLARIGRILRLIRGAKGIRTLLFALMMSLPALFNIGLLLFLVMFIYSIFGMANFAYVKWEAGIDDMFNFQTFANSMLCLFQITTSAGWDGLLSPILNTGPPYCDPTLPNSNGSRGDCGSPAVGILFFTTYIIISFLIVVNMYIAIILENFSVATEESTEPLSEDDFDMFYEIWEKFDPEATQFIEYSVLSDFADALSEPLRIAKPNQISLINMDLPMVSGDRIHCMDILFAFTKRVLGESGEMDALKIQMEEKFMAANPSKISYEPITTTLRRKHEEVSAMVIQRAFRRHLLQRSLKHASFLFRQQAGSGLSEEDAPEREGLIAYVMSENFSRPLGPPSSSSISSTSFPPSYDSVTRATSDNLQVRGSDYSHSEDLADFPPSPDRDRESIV

CC[C@H](C)[C@@H]1NC(=O)[C@@H]2CSSC[C@@H]3NC(=O)[C@H](C(C)C)NC(=O)[C@H](CC(C)C)NC(=O)[C@H](CC(N)=O)NC(=O)[C@@H]4CCCN4C(=O)[C@H](CCCNC(=N)N)NC(=O)[C@H](CSSC[C@H](NC(=O)[C@@H](N)CC(=O)O)C(=O)N[C@@H](CC(C)C)C(=O)NCC(=O)N[C@@H](CCC(=O)O)C(=O)N[C@@H](CCSC)C(=O)N[C@@H](CCCNC(=N)N)C(=O)N[C@@H](CCCCN)C(=O)N2)NC(=O)[C@H](CSSC[C@@H](C(=O)N[C@@H](CCCCN)C(=O)N[C@@H](Cc2ccc(O)cc2)C(=O)N[C@H](C(=O)N[C@@H](Cc2ccccc2)C(N)=O)C(C)C)NC(=O)[C@H](Cc2c[nH]c4ccccc24)NC(=O)[C@H](CCCCN)NC(=O)[C@H](Cc2cnc[nH]2)NC(=O)[C@H]([C@@H](C)O)NC(=O)[C@H](CCCNC(=N)N)NC(=O)[C@H](CO)NC3=O)NC(=O)[C@H](CCCCN)NC(=O)[C@H](CC(=O)O)NC(=O)[C@H](CC(N)=O)NC(=O)[C@H](CC(=O)O)NC(=O)[C@@H]2CCCN2C1=O [SEQ ID NO: 143] (H-DCLGEMRKCIPDNDKCCRPNLVCSRTHKWCKYVF-NH2; disulfide 2-17, 9-23, 16-30)
IC50 (hNav1.7; [1]): 17.7 µM | IC50 (hNav1.5; IWQ Use Nav1.5): 10 µM

CC[C@H](C)[C@@H]1NC(=O)[C@@H]2CSSC[C@@H]3NC(=O)[C@H](C(C)C)NC(=O)[C@H](CC(C)C)NC(=O)[C@H](CC(N)=O)NC(=O)[C@@H]4CCCN4C(=O)[C@H](CCCNC(=N)N)NC(=O)[C@H](CSSC[C@H](NC(=O)[C@@H](N)CC(=O)O)C(=O)N[C@@H](CC(C)C)C(=O)NCC(=O)N[C@@H](Cc4ccccc4)C(=O)N[C@@H](Cc4ccc(I)cc4)C(=O)N[C@@H](CCCNC(=N)N)C(=O)N[C@@H](CCCCN)C(=O)N2)NC(=O)[C@H](CSSC[C@@H](C(=O)N[C@@H](CCCCN)C(=O)N[C@@H](Cc2ccc(O)cc2)C(=O)N[C@H](C(=O)N[C@@H](Cc2ccccc2)C(N)=O)C(C)C)NC(=O)[C@H](Cc2c[nH]c4ccccc24)NC(=O)[C@H](CCCCN)NC(=O)[C@H](Cc2c[nH]cn2)NC(=O)[C@H]([C@@H](C)O)NC(=O)[C@H](CCCNC(=N)N)NC(=O)[C@H](CO)NC3=O)NC(=O)[C@H](CCCCN)NC(=O)[C@H](CC(=O)O)NC(=O)[C@H](CC(N)=O)NC(=O)[C@H](CC(=O)O)NC(=O)[C@@H]2CCCN2C1=O [SEQ ID NO: 291]
IC50 (hNav1.7; [1]): 0.02 µM | IC50 (hNav1.5; IonWorks Quattro, clamped to −110 mV, depolarized to −10 mV, 5 min after compound, n=2, read-out: IWQ Use Nav1.5): 0.95 µM

CC[C@H](C)[C@@H]1NC(=O)[C@@H]2CSSC[C@@H]3NC(=O)[C@H](C(C)C)NC(=O)[C@H](CC(C)C)NC(=O)[C@H](CC(N)=O)NC(=O)[C@@H]4CCCN4C(=O)[C@H](CCCNC(=N)N)NC(=O)[C@H](CSSC[C@H](NC(=O)[C@@H](N)CC(=O)O)C(=O)N[C@@H](CC(C)C)C(=O)NCC(=O)N[C@@H](Cc4ccccc4)C(=O)N[C@@H](CCSC)C(=O)N[C@@H](CCCNC(=N)N)C(=O)N[C@@H](CCCCN)C(=O)N2)NC(=O)[C@H](CSSC[C@@H](C(=O)N[C@@H](CCCCN)C(=O)N[C@@H](Cc2ccc(O)cc2)C(=O)N[C@H](C(=O)N[C@@H](Cc2ccccc2)C(N)=O)C(C)C)NC(=O)[C@H](Cc2c[nH]c4ccccc24)NC(=O)[C@H](CC(=O)O)NC(=O)[C@H](Cc2c[nH]cn2)NC(=O)[C@H]([C@@H](C)O)NC(=O)[C@H](CCCNC(=N)N)NC(=O)[C@H](CO)NC3=O)NC(=O)[C@H](CCCCN)NC(=O)[C@H](CC(=O)O)NC(=O)[C@H](CC(N)=O)NC(=O)[C@H](CC(=O)O)NC(=O)[C@@H]2CCCN2C1=O [SEQ ID NO: 750, [Asp28]GpTx-1] (H-DCLGFMRKCIPDNDKCCRPNLVCSRTHDWCKYVF-NH2; disulfide 2-17, 9-23, 16-30)
IC50 (hNav1.7; use-dependent block, hNav1.7): 0.73 µM | IC50 (hNav1.5; read-out: IWQ Use Nav1.5): 37.9 µM

CC[C@H](C)[C@@H]1NC(=O)[C@@H]2CSSC[C@@H]3NC(=O)[C@H](C(C)C)NC(=O)[C@H](CC(C)C)NC(=O)[C@H](CC(N)=O)NC(=O)[C@@H]4CCCN4C(=O)[C@H](CCCNC(=N)N)NC(=O)[C@H](CSSC[C@H](NC(=O)[C@@H](N)CC(=O)O)C(=O)N[C@@H](CC(C)C)C(=O)NCC(=O)N[C@@H](Cc4ccccc4)C(=O)N[C@@H](CCSC)C(=O)N[C@@H](CCCNC(=N)N)C(=O)N[C@@H](CCCCN)C(=O)N2)NC(=O)[C@H](CSSC[C@@H](C(=O)N[C@@H](CCCCN)C(=O)N[C@@H](Cc2ccc(O)cc2)C(=O)N[C@H](C(=O)N[C@@H](Cc2ccccc2)C(N)=O)C(C)C)NC(=O)[C@H](Cc2ccccc2)NC(=O)[C@H](CCCCN)NC(=O)[C@H](Cc2c[nH]cn2)NC(=O)[C@H]([C@@H](C)O)NC(=O)[C@H](CCCNC(=N)N)NC(=O)[C@H](CO)NC3=O)NC(=O)[C@H](CCCCN)NC(=O)[C@H](CC(=O)O)NC(=O)[C@H](CC(N)=O)NC(=O)[C@H](CC(=O)O)NC(=O)[C@@H]2CCCN2C1=O [compound 112] (H-DCLGFMRKCIPDNDKCCRPNLVCSRTHKFCKYVF-NH2; disulfide 2-17, 9-23, 16-30)
IC50 (hNav1.7; Table 24, use, […]): 2.18 µM | IC50 (hNav1.5; Table 24, IonWorks Quattro, use, […], read-out: IWQ Use Nav1.5): 6.21 µM

CC[C@H](C)[C@@H]1NC(=O)[C@@H]2CSSC[C@@H]3NC(=O)[C@H](C(C)C)NC(=O)[C@H](CC(C)C)NC(=O)[C@H](CC(N)=O)NC(=O)[C@@H]4CCCN4C(=O)[C@H](CCCCN(C)C)NC(=O)[C@H](CSSC[C@H](NC(=O)[C@@H](N)CC(=O)O)C(=O)N[C@@H](CC(C)C)C(=O)NCC(=O)N[C@@H](Cc4ccccc4)C(=O)N[C@@H](CCSC)C(=O)N[C@@H](CCCNC(=N)N)C(=O)N[C@@H](CCCCN)C(=O)N2)NC(=O)[C@H](CSSC[C@@H](C(=O)N[C@@H](CCCCN)C(=O)N[C@@H](Cc2ccc(O)cc2)C(=O)N[C@H](C(=O)N[C@@H](Cc2ccccc2)C(N)=O)C(C)C)NC(=O)[C@H](Cc2c[nH]c4ccccc24)NC(=O)[C@H](CCCCN)NC(=O)[C@H](Cc2cnc[nH]2)NC(=O)[C@H]([C@@H](C)O)NC(=O)[C@H](CCCNC(=N)N)NC(=O)[C@H](CO)NC3=O)NC(=O)[C@H](CCCCN)NC(=O)[C@H](CC(=O)O)NC(=O)[C@H](CC(N)=O)NC(=O)[C@H](CC(=O)O)NC(=O)[C@@H]2CCCN2C1=O [compound 314] (H-DCLGFMRKCIPDNDKCC[Lys(Me2)]PNLVCSRTHKWCKYVF-NH2; disulfide 2-17, 9-23, 16-30)
IC50 (hNav1.5; IonWorks Quattro, Use, read-out: IWQ Use Nav1.5): 6.55 µM | IC50 (hNav1.3; Use): 0.08 µM

CC[C@H](C)[C@@H]1NC(=O)[C@@H]2CSSC[C@@H]3NC(=O)[C@H](C(C)C)NC(=O)[C@H](CC(C)C)NC(=O)[C@H](CC(N)=O)NC(=O)[C@@H]4CCCN4C(=O)[C@H](CCCNC(=N)N)NC(=O)[C@H](CSSC[C@H](NC(=O)[C@@H](N)CC(=O)O)C(=O)N[C@@H](CC(C)C)C(=O)NCC(=O)N[C@@H](Cc4ccccc4)C(=O)N[C@@H](CCSC)C(=O)N[C@@H](CCCNC(=N)N)C(=O)N[C@@H](CCCCN)C(=O)N2)NC(=O)[C@H](CSSC[C@@H](C(=O)N[C@@H](CCCCN)C(=O)N[C@@H](Cc2ccc(O)cc2)C(=O)N[C@H](C(=O)N[C@@H](Cc2ccccc2)C(N)=O)C(C)C)NC(=O)[C@H](Cc2c[nH]c4ccccc24)N(C)C(=O)[C@H](CCCCN)NC(=O)[C@H](Cc2c[nH]cn2)NC(=O)[C@H]([C@@H](C)O)NC(=O)[C@H](CCCNC(=N)N)NC(=O)[C@H](CO)NC3=O)NC(=O)[C@H](CCCCN)NC(=O)[C@H](CC(=O)O)NC(=O)[C@H](CC(N)=O)NC(=O)[C@H](CC(=O)O)NC(=O)[C@@H]2CCCN2C1=O [compound 357]
IC50 (hNav1.5; IWQ Use Nav1.5 (μM)): > 5 µM | IC50 (hNav1.3; Table 24, use, […]): > 5 µM

CC[C@H](C)[C@@H]1NC(=O)[C@@H]2CSSC[C@@H]3NC(=O)[C@H](C(C)C)NC(=O)[C@H](CC(C)C)NC(=O)[C@H](CC(N)=O)NC(=O)[C@@H]4CCCN4C(=O)[C@H](CCCNC(=N)N)NC(=O)[C@H](CSSC[C@H](NC(=O)[C@@H](N)CC(=O)O)C(=O)N[C@@H](CC(C)C)C(=O)NCC(=O)N[C@@H](Cc4ccccc4)C(=O)N[C@@H](CCSC)C(=O)N[C@@H](CCCNC(=N)N)C(=O)N[C@@H](CCCCN)C(=O)N2)NC(=O)[C@H](CSSC[C@@H](C(=O)N[C@@H](CCCCN)C(=O)N[C@@H](Cc2ccc(O)cc2)C(=O)N[C@H](C(N)=O)C(C)C)NC(=O)[C@H](Cc2c[nH]c4ccccc24)NC(=O)[C@H](CCCCN)NC(=O)[C@H](Cc2cnc[nH]2)NC(=O)[C@H]([C@@H](C)O)NC(=O)[C@H](CCCNC(=N)N)NC(=O)[C@H](CO)NC3=O)NC(=O)[C@H](CCCCN)NC(=O)[C@H](CC(=O)O)NC(=O)[C@H](CC(N)=O)NC(=O)[C@H](CC(=O)O)NC(=O)[C@@H]2CCCN2C1=O [compound 415] (H-DCLGFMRKCIPDNDKCCRPNLVCSRTHKWCKYV-NH2; disulfide 2-17, 9-23, 16-30)
IC50 (hNav1.5; [2]): 10.8 µM | IC50 (hNav1.3; use-dependent, […]): 1.3 µM

CC[C@H](C)[C@@H]1NC(=O)[C@@H]2CSSC[C@@H]3NC(=O)[C@H](C(C)C)NC(=O)[C@H](CC(C)C)NC(=O)[C@H](CC(N)=O)NC(=O)[C@@H]4CCCN4C(=O)[C@H](CCCNC(=N)N)NC(=O)[C@H](CSSC[C@H](NC(=O)[C@@H](N)CC(=O)O)C(=O)N[C@@H](CC(C)C)C(=O)NCC(=O)N[C@@H](Cc4ccccc4)C(=O)N[C@@H](CCSC)C(=O)N[C@@H](CCCNC(=N)N)C(=O)N[C@@H](CCCCN)C(=O)N2)NC(=O)[C@H](CSSC[C@@H](C(=O)N[C@@H](CCCCN)C(=O)N[C@@H](Cc2ccc(O)cc2)C(N)=O)NC(=O)[C@H](Cc2c[nH]c4ccccc24)NC(=O)[C@H](CCCCN)NC(=O)[C@H](Cc2cnc[nH]2)NC(=O)[C@H]([C@@H](C)O)NC(=O)[C@H](CCCNC(=N)N)NC(=O)[C@H](CO)NC3=O)NC(=O)[C@H](CCCCN)NC(=O)[C@H](CC(=O)O)NC(=O)[C@H](CC(N)=O)NC(=O)[C@H](CC(=O)O)NC(=O)[C@@H]2CCCN2C1=O [compound 416] (H-DCLGFMRKCIPDNDKCCRPNLVCSRTHKWCKY-NH2; disulfide 2-17, 9-23, 16-30)
IC50 (hNav1.5; [2]): 8.64 µM | IC50 (hNav1.3; use-dependent, […]): 0.88 µM
